SMILES strings stand for the structures.

In one assay the target is T1, NUAK1 (Homo sapiens, UniProt O60285).
T1 sequence (O60285 1-661): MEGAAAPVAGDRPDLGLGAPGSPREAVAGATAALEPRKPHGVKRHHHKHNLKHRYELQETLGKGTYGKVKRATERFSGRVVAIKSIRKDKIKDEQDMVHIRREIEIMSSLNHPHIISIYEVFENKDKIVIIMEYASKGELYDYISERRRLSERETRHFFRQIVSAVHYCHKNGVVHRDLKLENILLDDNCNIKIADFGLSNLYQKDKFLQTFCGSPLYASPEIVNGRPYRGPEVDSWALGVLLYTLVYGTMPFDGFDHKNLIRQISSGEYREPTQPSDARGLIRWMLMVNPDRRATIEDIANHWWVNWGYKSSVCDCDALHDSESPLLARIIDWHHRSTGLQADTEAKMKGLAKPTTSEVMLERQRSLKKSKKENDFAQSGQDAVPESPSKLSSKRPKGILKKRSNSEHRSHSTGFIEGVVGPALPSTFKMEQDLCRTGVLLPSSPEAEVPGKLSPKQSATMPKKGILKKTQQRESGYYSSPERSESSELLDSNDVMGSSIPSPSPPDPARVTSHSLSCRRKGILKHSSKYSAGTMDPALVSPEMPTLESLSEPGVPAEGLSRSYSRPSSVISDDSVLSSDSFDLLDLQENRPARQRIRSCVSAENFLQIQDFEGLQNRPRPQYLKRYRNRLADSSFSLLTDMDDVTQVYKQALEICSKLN
Description: Kinase activity inhibition assay, P81 filter paper binding hot-spot technique (33P-ATP, CHKtide substrate). In kind it is biochemical. Conditions: final concentration of NUAK1 10 nM; 20 µM CHKtide substrate; incubated 2 hours at room temperature; read-out: IC50 (nM) of Test Compounds of the Present Application against NUAK1. Here is the method:
(§1) The inhibitory activity of the pyrimidinamine small molecules involved in the present application against NUAK1 and NUAK2 kinases was determined using a kinase activity assay based on the P81 filter paper binding hot-spot technique (Nat Biotechnol. 2011, 29:1039). A brief description is as follows:
(§2) The assay buffer system contained 20 mM Hepes (pH 7.5), 10 mM MgCl2, 1 mM EGTA, 0.01% Brij35 (L23 polyoxyethylene lauryl ether), 0.02 mg/mL BSA (bovine serum albumin), 0.1 mM Na3VO4, 2 mM DTT, and 1% DMSO.
(§3) • 1. A 20 µM substrate solution was prepared with freshly prepared test buffer and CHKtide peptide fragments (Sanchez Y. Science. 1997, 277: 1497-1501) were used as a substrate. • 2. Kinases were added and mixed gently (a final concentration of NUAK1 was 10 nM; and a final concentration of NUAK2 was 50 nM). • 3. Test compounds dissolved in 100% DMSO were each added to the above kinase reaction mixture solution via Acoustic Droplet Ejection (Echo550; nanoliter) and the mixture was incubated for 5 minutes at room temperature. • 4. ^33P-labeled ATP (a ratio of unlabeled ATP to labeled ATP was 25:1 or 2.5:1) was added. • 5. The mixture was incubated for 2 hours at room temperature. • 6. Kinase activity was tested using the P81 filter paper combined with hotspot technology.
(§4) The IC50 values of the test compounds against NUAK1/NUAK2 were calculated according to the above test. For specific results, see Table 1.
(§5) The IC50 values were calculated by using a formula derived from sigmoidal dose-response curve (variable slope):
(§6) Y = Bottom + (Top-Bottom)/(1+10^((LogEC50-X)*Slope, where X is the logarithm of compound concentration, Y is the response (inhibition rate of kinase activity), and Y rises from bottom to top along the sigmoidal curve as the concentration increases. Table 1: IC50 (nM) of Test Compounds of the Present Application against NUAK1/NUAK2

A further assay has as its target T2, NUAK2 (Homo sapiens, UniProt Q9H093).
T2 sequence (Q9H093 1-628): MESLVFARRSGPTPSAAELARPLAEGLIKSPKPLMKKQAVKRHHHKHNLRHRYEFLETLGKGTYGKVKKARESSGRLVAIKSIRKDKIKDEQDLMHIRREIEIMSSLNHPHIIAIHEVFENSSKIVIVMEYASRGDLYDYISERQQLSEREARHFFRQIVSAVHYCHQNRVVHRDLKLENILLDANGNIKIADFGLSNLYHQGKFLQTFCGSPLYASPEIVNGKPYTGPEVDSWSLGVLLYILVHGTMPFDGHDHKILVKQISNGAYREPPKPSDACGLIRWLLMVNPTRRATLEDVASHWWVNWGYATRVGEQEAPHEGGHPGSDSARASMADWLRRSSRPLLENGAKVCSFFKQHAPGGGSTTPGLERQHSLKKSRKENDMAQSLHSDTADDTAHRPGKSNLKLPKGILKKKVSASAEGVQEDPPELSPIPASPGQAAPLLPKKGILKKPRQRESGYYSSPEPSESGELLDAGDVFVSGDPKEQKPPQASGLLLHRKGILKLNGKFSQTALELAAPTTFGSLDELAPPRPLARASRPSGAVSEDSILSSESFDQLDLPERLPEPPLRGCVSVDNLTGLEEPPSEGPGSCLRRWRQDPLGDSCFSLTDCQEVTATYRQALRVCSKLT
The description is as above. In kind it is biochemical. Conditions: final concentration of NUAK2 50 nM; 20 µM CHKtide substrate; incubated 2 hours at room temperature; read-out: IC50 (nM) of Test Compounds of the Present Application against NUAK2. Here is the method:
as §1, §2, §3, §4, §5, §6

Usually IC50 stands for the concentration at which inhibition is half-maximal. With `CN1CCN(c2ccc(Nc3ncc(Cl)c(Oc4cccc(NC(=O)C5CC5(F)F)c4)n3)cc2)CC1` (stereo not shown) [TDM-181120], the figures for the IC50 on NUAK1 and on NUAK2 were 21 nM and 311 nM, respectively.
As for `O=C(Nc1cccc(Oc2nc(Nc3cnn(C4CCNCC4)c3)ncc2Cl)c1)C1CC1(F)F` (stereo not shown) [TDM-181127, N-(3-((5-Chloro-2-((1-(piperidin-4-yl)-1H-pyrazol-4-yl)amino)pyrimidin-4-yl)oxy)phenyl)-2,2-difluorocyclopropane-1-carboxamide], the values for the IC50 on NUAK1 and at NUAK2 were 161 nM and 352 nM, respectively.
On the same counts, the results for `CN1CCN(c2ccc(Nc3ncc(Cl)c(N(C)c4cccc(NC(=O)[C@@H]5CC5(F)F)c4)n3)cc2)CC1` [TDM-181131, (S)-N-(3-((5-Chloro-2-((4-(4-methylpiperazin-1-yl)phenyl)amino)pyrimidin-4-yl)(methyl)amino)phenyl)-2,2-difluorocyclopropane-1-carboxamide] are 81 nM and 635 nM.
Take `COc1cc(N2CCN(C)CC2)ccc1Nc1ncc(Cl)c(Oc2ccccc2NC(=O)C2CC2)n1` [TDM-181132, N-(2-((5-Chloro-2-((2-methoxy-4-(4-methylpiperazin-1-yl)phenyl)amino)pyrimidin-4-yl)oxy)phenyl)cyclopropanecarboxamide]: the IC50 at NUAK1 worked out at 24 nM; at NUAK2, 37 nM.
Turning to `COc1cc(N2CCN(C)CC2)ccc1Nc1ncc(Cl)c(Oc2ccccc2NC(=O)[C@@H]2CC2(F)F)n1` [TDM-181160, (S)-N-(2-((5-Chloro-2-((2-methoxy-4-(4-methylpiperazin-1-yl)phenyl)amino)pyrimidin-4-yl)oxy)phenyl)-2,2-difluorocyclopropane-1-carboxamide], the results for the half-inhibitory concentration (IC50) at NUAK1 and at NUAK2 were 4 nM and 13 nM, respectively.

These data come from patent EP4745127A1, “PYRIMIDINAMINE NUAK INHIBITOR AS WELL AS PREPARATION METHOD THEREFOR AND USE THEREOF” (Technoderma Medicines Inc., priority 2023, dated 2025).
